The target of experiment [1] is T1, Nurr1 (Homo sapiens, UniProt P43354).
T1 construct: pFA-CMV-hNurr1-LBD; expressed in transfected cells; host or cells: HEK293T
The experiment is described as follows: Gal4-hybrid reporter gene assay, Nurr1. The class given is cell-based. The conditions noted are these: for remain. Nurr1 activity: 30 μM; for agonist activity on Gal4-Nurr1: amide analogues; for activity on Nurr1 (fold reporter activation vs. DMSO ctrl): 30 and 100 µM, Figure S1, mean±SD, n=3. On the procedure: (§1) modified Eagle’s medium (DMEM), high glucose supplemented with 10% fetal calf serum (FCS), sodium pyruvate (1 mM), penicillin (100 U/mL), and streptomycin (100 μg/mL) at 37 °C and 5% CO2 and seeded in 96-well plates (3×10^4 cells/well). After 24 h, the medium was changed to Opti-MEM without supplements, and the cells were transiently transfected using Lipofectamine LTX reagent (Invitrogen) according to the manufacturer’s protocol. Five hours after transfection, the cells were incubated with the test compounds in Opti-MEM supplemented with penicillin (100 U/mL), streptomycin (100 μg/mL), and 0.1% DMSO for 15 h before luciferase activity was measured using the Dual -Glo Luciferase Assay System (Promega) according to the manufacturer’s protocol on a Tecan Spark l uminometer (Tecan Deutschland GmbH, Germany). Firefly luminescence was divided by Renilla luminescence and multiplied by 1000, resulting in relative light units (RLU) to normalize for transfection efficiency and cell growth. Fold activation was obtained by dividing the mean RLU of a sample by the mean RLU of the untreated control. All samples were tested in at least three biologically independent experiments in duplicates. For dose –response curve fitting and calculation of EC50 values, the equation “[Agonist] vs. response – Variable slope (four parameters)” was used in GraphPad Prism (version 5.04, GraphPad Software, La Jolla, CA, USA). […] (10 μM, NR4A) and bexarotene (1 µM, NR2B) served as the positive control. […]
(§2) 150 μM in the same buffer containing 2-4% DMSO) in 21–26 injections (1 × 1 μL and 20 × 4 to 25 × 4 μL) with an injection interval of 120 s. As control experiments, the test compounds were titrated to the buffer, and the buffer was titrated to the protein under otherwise identical conditions. The heat rates of the compound-Nurr1 LBD titrations were analyzed using NanoAnalyze software (TA Instruments, New Castle, DE) with an independent binding model.
On the technique in general: Reporter assays use an easily measured gene product as a stand-in for the process of interest.

In experiment [2] the target is T2, RXRα (Homo sapiens, UniProt P19793).
T2 construct: pFA-CMV-hRXRα-LBD; expressed in transfected cells; host or cells: HEK293T
T2 sequence (P19793 227-458 limits assumed): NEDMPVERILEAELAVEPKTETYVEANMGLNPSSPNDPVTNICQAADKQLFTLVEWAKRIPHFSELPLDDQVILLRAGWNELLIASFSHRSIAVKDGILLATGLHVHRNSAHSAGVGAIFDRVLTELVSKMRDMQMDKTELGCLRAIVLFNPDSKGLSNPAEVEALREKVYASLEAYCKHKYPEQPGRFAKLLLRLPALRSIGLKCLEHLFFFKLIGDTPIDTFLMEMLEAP
The experiment is described as follows: Gal4-hybrid reporter gene assay, RXRα. The class given is cell-based. The conditions noted are these: for RXRα activity at single concentration: 30 μM. On the procedure:
as §1, §2

Experiment [3] addresses T3, RXRβ (Homo sapiens, UniProt P28702).
T3 construct: CMV-hRXRβ-LBD; expressed in transfected cells; host or cells: HEK293T
T3 sequence (P28702 296-529 limits assumed): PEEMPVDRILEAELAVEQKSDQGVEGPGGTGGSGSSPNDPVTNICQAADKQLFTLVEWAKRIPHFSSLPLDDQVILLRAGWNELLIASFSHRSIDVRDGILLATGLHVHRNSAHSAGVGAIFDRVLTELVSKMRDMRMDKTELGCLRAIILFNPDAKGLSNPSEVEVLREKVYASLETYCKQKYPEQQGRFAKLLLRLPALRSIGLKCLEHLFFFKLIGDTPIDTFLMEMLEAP
The experiment is described as follows: Gal4-hybrid reporter gene assay, RXRβ. In kind it is cell-based. The conditions noted are these: for RXRβ activity at single concentration: 30 μM. On the procedure:
as §1, §2

The target in experiment [4] is T4, RXRγ (Homo sapiens, UniProt P48443).
T4 construct: pFA-CMV-hRXRγ-LBD; expressed in transfected cells; host or cells: HEK293T
T4 sequence (P48443 231-459 limits assumed): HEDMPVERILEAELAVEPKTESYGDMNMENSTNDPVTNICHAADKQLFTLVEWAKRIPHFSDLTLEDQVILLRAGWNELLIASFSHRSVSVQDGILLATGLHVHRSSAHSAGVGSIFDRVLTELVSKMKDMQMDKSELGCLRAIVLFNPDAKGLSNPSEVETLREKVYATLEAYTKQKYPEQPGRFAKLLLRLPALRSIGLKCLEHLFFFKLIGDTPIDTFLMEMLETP
Description: Gal4-hybrid reporter gene assay, RXRγ. In kind it is cell-based. To be noted: for RXRγ activity at single concentration: 30 μM. On the procedure:
as §1, §2

Experiment [5] concerns the target T5, Nurr1 LBD (Homo sapiens, UniProt P43354).
T5 construct: made in house
Description: Isothermal titration calorimetry, recombinant Nurr1 LBD. The class given is binding. To be noted: ITC. On the procedure:
(§3) Isothermal titration calorimetry. ITC experiments for ligand binding to Nurr1 and RXR were conducted on an Affinity ITC instrument (TA Instruments, New Castle, DE) at 25 °C with a stirring rate of 75 rpm using recombinantly expressed ligand binding domain proteins as described previously5,6. The respective LBD protein (12–25 μM) in buffer (20 mM Tris pH 7.5, 100 mM NaCl, 5% glycerol) containing 2-4% DMSO was titrated with the test compounds (100-150 μM in the same buffer containing 2-4% DMSO) in 21–26 injections (1 × 1 μL and 20 × 4 to 25 × 4 μL) with an injection interval of 120 s. As control experiments, the test compounds were titrated to the buffer, and the buffer was titrated to the protein under otherwise identical conditions. The heat rates of the compound-Nurr1 LBD titrations were analyzed using NanoAnalyze software (TA Instruments, New Castle, DE) with an independent binding model.
A general note: ITC needs no label: the signal is the heat of the interaction.

The target of experiment [6] is T6, RXRα LBD (Homo sapiens, UniProt P19793).
T6 construct: made in house
T6 sequence (P19793 227-458 limits assumed): T2 sequence (P19793 227-458 limits assumed)
Description: Isothermal titration calorimetry, recombinant RXRα LBD. In kind it is binding. The conditions noted are these: ITC. On the procedure: as §3

The test system of experiment [7] is RXR. The experiment is described as follows: Gal4 hybrid reporter gene assay, RXR (subtype not stated). The class given is cell-based. The conditions noted are these: for RXR activation: amide analogues; for activity on RXR (fold reporter activation vs. DMSO ctrl): 30 and 100 µM, Figure S1, mean±SD, n=3. On the procedure:
as §1, §2

Experiment [8] concerns the target T7, Nurr1 homodimer (Homo sapiens, UniProt P43354).
T7 construct: Tb^3+-cryptate labeled and sGFP-labeled Nurr1 LBD proteins; FRET acceptor consisted of sGFP-Nurr1 LBD
Description: Nurr1 LBD homodimerization assay (HTRF). The class given is biochemical. The conditions noted are these: 30 μM, Tb3+-cryptate and sGFP labeled Nurr1 LBD. On the procedure: (§4) To determine the molecular response of the Nurr1:RXR heterodimer on dual agonist binding, we employed homogenous time-resolved fluorescence resonance energy transfer (HTRF) based assays with labeled Nurr1 and RXR LBD proteins. Tb^3+-cryptate as streptavidin conjugate served as FRET donor and was coupled to biotinylated proteins. sGFP fusion proteins of the receptors of interest were used as FRET acceptors. Ligand effects on dimer formation were determined by titrating the sGFP-labeled dimer partner with a fixed concentration of the Tb^3+-labeled counterpart. […] The same effect was also observable for the natural product 1 (Figure S3).
(§5) Nurr1 dimerization assays (HTRF). Modulation of Nurr1 LBD homodimerization and heterodimerization of the LDBs of Nurr1 and RXRα was investigated by HTRF as reported previously4. Nurr1 LBD or RXRα LBD proteins labeled with sGFP were titrated against a fixed concentration of Tb3+-cryptate as streptavidin conjugate (Tb-SA) (610SATLF, Revvity) coupled to biotinylated Nurr1 LBD protein in the presence of test compounds at 30 µM or absence of compound as a negative control (apo). Assay solutions were prepared in buffer containing 25 mM HEPES pH 7.5, 150 mM KF, 5% (m/v) glycerol, 5 mM DTT, 0.1% (m/v) CHAPS and 1%
(§6) DMSO. The FRET donor complex was formed from biotinylated Nurr1 LBD (final concentration 0.188 nM) and Tb-SA (0.375 nM) and was kept constant. For the homodimerization assay, the FRET acceptor consisted of sGFP-Nurr1 LBD, which was titrated from 0.5 µM, while free sGFP was added to keep the total GFP content stable at 0.5 µM. […] Samples were equilibrated at room temperature for 2 h and fluorescence intensities (FI) after excitation at 340 nm were recorded at 520 nm for sGFP acceptor fluorescence and at 620 for Tb-SA donor fluorescence on a SPARK plate reader (Tecan Group Ltd.). […]
(§7) Evaluation of Nurr1-regulated gene expression. […] RNA concentration and purity were assessed using a NanoDrop One UV-vis spectrophotometer (Thermo Fisher Scientific) at 260/280 nm. […]
A general note: TR-FRET usually uses a lanthanide donor and a delayed reading to cut background.

The target in experiment [9] is Nurr1:RXR heterodimer (Homo sapiens, UniProt P19793+P43354). Description: Nurr1 LBD:RXRα LBD heterodimerization assay (HTRF). To be noted: 10 µM, Figure S4. The class given is biochemical. On the procedure:
as §4, §5, §6, §7

Where [10] appears, read: Gal4-hybrid reporter gene assay.
Where [11] appears, read: Gal4-hybrid reporter gene assay, mean±S.E.M., n≥3.

From paper PMC7618597, “Dual Nurr1/RXR agonism of valerenic acid and synthetic mimetics enables dimer-selective Nurr1 modulation” (ACS medicinal chemistry letters, 2025) come the findings set out here.

Several values for one entry are separate records, joined by “and”; a condition that tells them apart may be missing. Equal entries are not always repeated.

T1 sequence (P43354 360-595 limits assumed): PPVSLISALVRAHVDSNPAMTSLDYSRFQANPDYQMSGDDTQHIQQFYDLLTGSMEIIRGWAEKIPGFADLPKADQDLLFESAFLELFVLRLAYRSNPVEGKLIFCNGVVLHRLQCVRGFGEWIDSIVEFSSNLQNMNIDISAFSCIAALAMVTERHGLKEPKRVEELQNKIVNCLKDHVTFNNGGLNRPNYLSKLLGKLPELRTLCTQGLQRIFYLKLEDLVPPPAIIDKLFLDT
T5 sequence (P43354 360-595 limits assumed): as above
T7 sequence (P43354 360-595 limits assumed): as above
Sequence of Nurr1:RXR heterodimer (P43354 360-595 limits assumed, one chain of several): as the sequence (P43354 360-595 limits assumed) above

Consider `Cc1c(C)n(-c2ccc(CC(N)=O)cc2)c2ccc(F)cc12` [compound 5], for which the “remain. Nurr1 activity” value in experiment [1] (setting [10]) is reported as 85±7% remain. Nurr1 activity (30 μM). In addition, in experiment [1], the “agonist activity on Gal4-Nurr1” value is “lost agonist activity”. The “RXRα activity at single concentration” value in experiment [2] was “α: inactive (30 μM) β: inactive (30 μM) γ: inactive (30 μM)”. For the same compound, the “RXRβ activity at single concentration” value in experiment [3] was “α: inactive (30 μM) β: inactive (30 μM) γ: inactive (30 μM)”. Also, the “RXRγ activity at single concentration” value in experiment [4] was “α: inactive (30 μM) β: inactive (30 μM) γ: inactive (30 μM)”. In experiment [5], the “Kd(Nurr1 LBD)” value is on record as “no binding detected”. Moreover, in experiment [6], the “Kd(RXRα LBD)” value is reported as “no binding detected”. Moreover, the RXR activation result in experiment [7] is listed as “failed to activate RXR”.
On to `CC1=C2[C@@H]([C@H](C)CC[C@H]2/C=C(\C)C(=O)O)[C@H](O)C1` [VA-OH, hydroxy-valerenic acid, reference compound], for which the “activity on Nurr1 (fold reporter activation vs. DMSO ctrl)” value in [1] is “no activity”. The “activity on RXR (fold reporter activation vs. DMSO ctrl)” value in experiment [7] is given as “no activity”.
Take `CC1=C2[C@H](/C=C(\C)C(=O)O)CC[C@@H](C)[C@H]2CC1` [compound 1, valerenic acid]: in experiment [1] (Gal4-hybrid reporter gene assay, max. fold activation), the “max. act. (Nurr1)” value was 1.3 fold and 1.3±0.1 fold. Besides, the EC50 – broadly, the concentration that produces a half-maximal response – came to 3 ± 1 µM in experiment [1] (setting [11]), 27 µM in [2] (setting [11]), 5.2 µM in experiment [3] (setting [11]) and 43 µM in experiment [4] (setting [11]). The “max. act. (RXR) α” value in experiment [2] (setting [10]) is recorded as 9±1 fold. The “max. act. (RXR) β” value in experiment [3] (setting [10]) came to 69±1 fold. Besides, in [4] (setting [10]), the “max. act. (RXR) γ” value was determined as 4±1 fold. In addition, in [8], the Nurr1 homodimer formation result is reported as “same effect”.
For `Cc1c2c(n(-c3ccc(CC(N)=O)cc3)c1C)CCC(F)(F)C2` [compound 4], the “remain. Nurr1 activity” value in experiment [1] (setting [10]) is reported as 86±9% remain. Nurr1 activity (30 μM). Besides, in experiment [1], the “agonist activity on Gal4-Nurr1” value was “lost agonist activity”. Further, the “RXRα activity at single concentration” value in experiment [2] was “α: inactive (30 μM) β: inactive (30 μM) γ: inactive (30 μM)”. In addition, the “RXRβ activity at single concentration” value in experiment [3] is “α: inactive (30 μM) β: inactive (30 μM) γ: inactive (30 μM)”. Further, the “RXRγ activity at single concentration” value in experiment [4] is “α: inactive (30 μM) β: inactive (30 μM) γ: inactive (30 μM)”. The “Kd(Nurr1 LBD)” value in experiment [5] is on record as “no binding detected”. The “Kd(RXRα LBD)” value in experiment [6] was “no binding detected”. For the same compound, in [7], the RXR activation entry is on record as “failed to activate RXR”.
With `CC1(C)CCC(C)(C)c2cc(C3(c4ccc(C(=O)O)cc4)OCCO3)ccc21` [SR11237, reference compound], the “Nurr1:RXR heterodimer formation (dimer strength)” value in experiment [9] is given as “Diminished dimer strength”.
Turning to `CC(=O)O[C@@H]1CC(C)=C2[C@H]1[C@H](C)CC[C@H]2/C=C(\C)C(=O)O` [VA-OAc, acetoxy-valerenic acid, reference compound], the “activity on Nurr1 (fold reporter activation vs. DMSO ctrl)” value in experiment [1] is on record as “no activity”. For the same compound, the “activity on RXR (fold reporter activation vs. DMSO ctrl)” value in [7] is “no activity”.
